Results as given in patent publication US8252846B2, “Strategies for delivery of active agents using micelles and particles” (priority 2005, dated 2012).

Legend:
[1] = tested on: serum nucleases; experiment: Protection of ISS-DNA from serum nucleases (gel electrophoresis); format: in vitro ADME; details: 10% serum, 12 hours
Protocol: The stimuli responsive release of peptides from the PCMs due to the presence of GSH was investigated to determine if the PCMs will release peptide antigens after phagocytosis. The PCMs were incubated with different concentrations of GSH, for 24 hours in 50 mM pH 7.4 PBS buffer, and then analyzed by HPLC to determine the release of peptides. […] Incubation of the PCMs with 10 mM GSH (intracellular levels) induces the release of 71% of peptide, whereas incubation of the PCMs with just buffer causes the release of only 10% of peptides. B. GSH sensitive DNA release. The ability of the PCMs to protect encapsulated ISS-DNA from degradation by serum nucleases was investigated. PCMs were synthesized (as described above) and incubated with 10% serum for 12 hours, these PCMs were then examined by gel electrophoresis to determine the stability of the encapsulated ISS-DNA. As a control, ISS-DNA by itself was incubated with serum. […] C. […] A key advantage of the PCM strategy is that it generates a crosslinked delivery system. This crosslinking should stabilize the PCMs in vivo. The stability of the PCMs to decomposition was investigated by mixing the negatively charged polymer, poly(vinyl sulfate) (PVS) with the PCMs, this mixture was then analyzed by gel electrophoresis to determine the quantity of ISS-DNA displaced by the PVS. […]

[2] = cited from earlier work
[3] = Hydrolysis of polyketal copolymers in buffered water (1H NMR); format: physicochemical; details: buffer
Protocol: The molecular weight of the polyketal copolymers was determined by gel permeation chromatography (GPC) using a Shimadzu system (Kyoto, Japan) equipped with a UV detector. THF was used as the mobile phase at a flow rate of 1 mL/min. Polystyrene standards (Peak Mw=1060, 2970, and 10680) from Polymer Laboratories (Amherst, Mass.) were used to establish a molecular weight calibration curve. The hydrolysis of the polyketal copolymers was measured in buffered water at pH values of 1.0 (0.1M HCL), 4.5 (100 mM AcOH) and 7.4 (100 mM) at 37° C. Briefly, 20 mg of the polymer samples were placed in a 5 ml vial, 1 mL of buffer solution was added to each vial, and mixed with a magnetic stir bar. At specific time points, 1 mL of CDCl3 was added to each vial and shaken vigorously, the CDCl3 phase was isolated and analyzed by ^1H NMR, to determine the percent hydrolysis the of ketal linkages in polyketal copolymer.

Row | Compound | Log P of diol [2] | Estimated half life at pH 7.4 ([3]; pH 7.4) [days] | Half life at pH 4.5 [3] [days] | other results
1 | 5-TCCATGACGTTCCTGACGTT-3 [ISS-DNA] |  |  |  | Stability of ISS-DNA to serum nucleases [1]: completely hydrolyzed
2 | OCC1CCC(CO)CC1 (stereo not drawn) [1,4-cyclohexanedimethanol] | 1.46 |  |  | 
3 | OCCCCCCCCO [1,8-octanediol] | 1.75 |  |  | 
4 | poly(cyclohexane-1,4-diyl acetone dimethylene ketal-co-1,5-pentane-acetone dimethylene ketal [PK3] |  | 39 |  | Hydrolysis half life at pH 7.4 (in words) ([3]; pH 7.4): several weeks
5 | poly(cyclohexane-1,4-diyl acetone dimethylene ketal-co-1,6-hexane-acetone dimethylene ketal) [PK5] |  | 53 | 4.4 | 
6 | poly(cyclohexane-1,4-diyl acetone dimethylene ketal-co-1,8-octane-acetone dimethylene ketal) [PK6] |  | 360 | 18.6 | 
